Entries after “also recorded” stand apart in the source; their conditions may differ.
Assays:
[1] = tested on: C. elegans strain AM141 (Q40::YFP aggregates); test: Q40::YFP aggregate foci in C. elegans strain AM141 (Huntington-like polyglutamine aggregation model); format: in vivo; conditions: for reduction of aggregate count (aggregate foci): strain AM141, Q40::YFP in muscle, FIG. 3
From the text: C. elegans (AM141) adults were imaged at 7 days of adult age and quantified for intensity (FIG. 2A) and number (FIG. 2B) of Q40::YFP aggregates after 0, 1, 3, or 6 d of exposure to 50-nM PNR-5-02. Treated worms differ from untreated worms (“Days Tx”=0) by 2-tailed t test: *P<0.01; **P<1E-4.
FIG. 3 depicts a graph showing reduction of protein aggregation in a C. elegans model of Huntington's disease or other neurodegenerative diseases featuring aggregates that contain polyglutamine tracts. Strain AM141, which expresses Q40::YFP in muscle, undergoes age-progressive accumulation of aggregate foci. PNR-5-02 analogues confer at least 30% reduction in formation of aggregate foci (****=P<0.00005 and *=P<0.01). PNR-5-18, PNR-4-44, PNR-5-58, and PNR-4-76 reduced aggregate count by ˜20%. PNR-5-02, PNR-4-87, PNR-5-56, and PNR-5-57 reduced aggregates ≥30%.
(§1) Several panels of drugs were tested for their ability to protect against formation of protein aggregates in the following model systems: (i) a cell-culture model of Alzheimer-like protein aggregation (SH-SY5Y-APPSw, a human neuroblastoma cell line expressing the Swedish mutation of Amyloid Precursor Protein (APP), and thus predisposed to form β-amyloid aggregates; (ii) C. elegans strain CL4176, a model of Alzheimer-like amyloidopathy that can be induced to express human Aβ1-42 in muscle, and declines sharply in motility 24-42 hours after induction unless protected by effective drugs; (iii) C. elegans strain CL2355, a model of Alzheimer-like amyloidopathy that expresses human Aβ1-42 in all neurons after upshift induction (as in ii, above), and consequently loses its normal chemotactic responses; (iv) C. elegans strain NL5901, a model of Parkinson's disease that expresses α-synuclein::GFP in neurons, forming fluorescent aggregates with age; aggregates are scored by number and intensity of GFP foci, or scored for neuron loss with age by dye-filling; and (v) C. elegans strain AM141, a model of Huntington-like polyglutamine aggregation, which expresses Q40::YFP (a 40-glutamine tract fused in-frame to yellow fluorescent protein) in muscle cells and accumulates aggregates during aging.

[2] = tested on: SH-SY5Y-APPSw cells; test: Thioflavin-T amyloid staining in SH-SY5Y-APPSw neuroblastoma cells; format: cell-based, human; conditions: for reduction of Thioflavin-fluorescence intensity: 48 hours drug treatment, amyloid fluorescence per nucleus, P<0.0001
Method: FIG. 7 depicts a graph showing PNR-5-02 analogues reduce amyloid accumulation in human neuroblastoma cells overexpressing amyloid precursor protein (APPSw). SH-SY5Y-APPSw, human neuroblastoma cells overexpressing a mutant amyloid precursor protein (APPsw) associated with familial AD. Elevated APPSw leads to substantial formation of amyloid plaque, visualized by fluorescence microscopy after Thioflavin-T staining on day 3 of culture.
as §1
Human neuroblastoma cells (SH-SY5Y-APPsw), express the Swedish mutant of Amyloid Precursor Protein (APPsw) and therefore are predisposed to form amyloid aggregate. […] Amyloid fluorescence is then divided by the number of nuclei, to obtain relative amyloid content per cell.

[3] = tested on: C. elegans strain CL2355; test: C. elegans strain CL2355 amyloidopathy model (human Aβ1-42 in all neurons, chemotaxis); format: in vivo; conditions: CL2355, loss of chemotactic responses
Method: as §1

[4] = tested on: C. elegans; test: C. elegans life span; format: in vivo
Method: FIG. 8 depicts a graph showing that PNR-5-02 increase C. elegans life span. The effect of PNR-5-02 on C. elegans life span, at different concentrations both mean and maximum life span of the nematode life span is extended by 15%.
Synchronized eggs (expected to hatch at approximately the same time) were placed on 60-mm nutrient-agar plates to which either vehicle (0.013% DMSO, v/v) for controls or PNR-5-02 (10 μM in 0.013% DMSO) was added. Worms were transferred to fresh plates daily for 7 days, and on alternate days thereafter, scoring worms as alive if they moved spontaneously or in response to gentle prodding. Worms lost for reasons other than natural death were censored (removed from mortality calculations) from that date. PNR-5-02 extended the nematode life span by 15% (FIG. 8).

[5] = tested on: C. elegans strain NL5901; test: C. elegans strain NL5901 Parkinson's disease model (α-synuclein::GFP aggregates); format: in vivo; conditions: NL5901, α-synuclein::GFP foci or neuron loss
Method: as §1

[6] = tested on: BRI-Aβ42 mice; test: Sarcosyl-insoluble protein aggregates in cerebral cortex of BRI-Aβ42 mice; format: in vivo
Method: Total protein and sarcosyl-insoluble protein aggregates were prepared from cerebral cortex of […] mice, treated as in FIG. 4. Aliquots were separated on SDS-acrylamide gels and stained with Sypro Ruby (Molecular Probes). Gel lanes were scanned, and for each aggregate-protein lane the integral of intensity was normalized to the integral for total protein. *P<0.03 by 1-tailed heteroscedastic t test.
Total protein and total sarcosyl-insoluble aggregates were isolated from cerebral cortex of BRI-Aβ42 mice, sacrificed after 10 daily IP injections with PNR-5-02 (as above) or vehicle. Protein aliquots were suspended in Laemmli buffer and resolved by SDS-acrylamide gel electrophoresis, and quantitated by protein-specific fluorescent staining. Results, presented in FIG. 5 as the percent of aggregate protein after normalization to total protein from the same sample, indicate an 18% reduction in aggregates for PNR-5-02-treated mice. Larger aggregates (at the top of each gel lane) were reduced >40%.

[7] = tested on: C. elegans strain CL4176; test: C. elegans strain CL4176 amyloidopathy model (human Aβ1-42 in muscle, motility); format: in vivo; conditions: CL4176, decline in motility 24-42 hours after induction
Method: as §1

[8] = at different concentrations, FIG. 8
[9] = cerebral cortex, 10 daily IP injections 5.7 μmole/kg

COc1cc(/C(C#N)=C/c2cc3ccccc3[nH]2)cc(OC)c1OC [PNR-4-44]
reduction of aggregate count (aggregate foci) [1]: ~20%

COc1ccc(/C(C#N)=C/c2cc3ccccc3s2)cc1 [PNR-4-76]
reduction of aggregate count (aggregate foci) [1]: ~20%

COc1ccc(/C(C#N)=C/c2c[nH]c3ccccc23)cc1OC [PNR-4-87]
reduction of Thioflavin-fluorescence intensity [2]: 34%

COc1cc(/C(C#N)=C\c2cc3ccccc3s2)cc(OC)c1OC [PNR-5-02]
protection against formation of protein aggregates [3]: protective
life span extension ([4]; 10 μM in 0.013% DMSO, from eggs): 15%
maximum life span extension [4, 8]: 15%
mean life span extension [4, 8]: 15%
intensity and number of Q40::YFP aggregates ([1]; AM141 adults imaged at 7 days of adult age, 1 d exposure to 50-nM vs 6 d exposure): as effective in reducing AM141 aggregates as 6-days exposure; also recorded: reduces Q40 aggregated in just 1 day
protection against formation of protein aggregates ([1]; C. elegans AM141, Q40::YFP aggregates): protective
protection against formation of protein aggregates [5]: protective
protection against formation of protein aggregates ([2]; SH-SY5Y-APPSw, β-amyloid aggregates): protective
protein aggregates in cerebral cortex (in words) ([6]; FIG. 5, P<0.03 by 1-tailed heteroscedastic t test): reduces protein aggregates
reduction in sarcosyl-insoluble aggregates normalized to total protein [6, 9]: 18%
reduction of larger aggregates (top of each gel lane) [6, 9]: > 40%
protection against formation of protein aggregates [7]: protective

COc1cc(/C(C#N)=C/c2coc3ccccc23)cc(OC)c1OC [PNR-5-18]
reduction of aggregate count (aggregate foci) [1]: ~20%

COc1cc(OC)cc(/C(C#N)=C/c2nc3ccccc3s2)c1 [PNR-5-58]
reduction of aggregate count (aggregate foci) [1]: ~20%
reduction of Thioflavin-fluorescence intensity [2]: 54%

From patent publication US12552763B2, “Methods of protecting against neurodegeneration” (BioVentures, LLC, priority 2017, dated 2026)
